# Experimental data from ChEMBL document CHEMBL4665835, “Synthesis and pharmacological evaluation of 11-(1,6-dimethyl-1,2,3,6-tetrahydropyridin-4-yl)-5H-dibenzo[b,e][1,4]diazepines with clozapine-like receptor occupancy at dopamine D/D receptor” (Bioorg Med Chem Lett, 2020).
# pIC50, pKi: −log10 of the molar value.
# How the values were obtained:
# [1] = target: Voltage-gated inwardly rectifying potassium channel KCNH2 (Homo sapiens, UniProt Q12809); test: Inhibition of human ERG
# [2] = Drug metabolism in human hepatocyte microsome fraction assessed as GSH conjugate formation by LC-MS/MS analysis; type: ADME; conditions: microsomes
# D(1A) dopamine receptor [3] = target: T1, D(1A) dopamine receptor (Homo sapiens, UniProt P21728); test: Binding affinity to human dopamine D1 receptor
# D(2) dopamine receptor = D(2) dopamine receptor (Homo sapiens, UniProt P14416)
# Description: Binding affinity to human dopamine D2 receptor
# D(1A) dopamine receptor [4] = target: T1, D(1A) dopamine receptor; test: Potency index, ratio of Clozapine Ki to compound Ki for binding affinity to human dopamine D1 receptor
# [5] = target: 5-hydroxytryptamine receptor 2A (Homo sapiens, UniProt P28223); test: Binding affinity to human 5HT2A receptor
# [6] = In vivo receptor occupancy at dopamine D1 receptor in sc dosed rat brain by measuring free plasma concentration pretreated for 1 hr in presence of SCH-23390 by LC-MS/MS analysis; type: functional
# [7] = In vivo receptor occupancy at dopamine D1 receptor in sc dosed rat brain by measuring free plasma concentration pretreated for 1 hr in presence of raclopride by LC-MS/MS analysis; type: functional
# [8] = In vivo receptor occupancy at human dopamine D1 receptor in schizophrenia patient brain at 10 mCi, iv by PET scanning; type: functional
# [9] = In vivo receptor occupancy at human dopamine D2 receptor in schizophrenia patient brain at 10 mCi, iv by PET scanning; type: functional
# D(2) dopamine receptor, sequence (P14416 whole entry): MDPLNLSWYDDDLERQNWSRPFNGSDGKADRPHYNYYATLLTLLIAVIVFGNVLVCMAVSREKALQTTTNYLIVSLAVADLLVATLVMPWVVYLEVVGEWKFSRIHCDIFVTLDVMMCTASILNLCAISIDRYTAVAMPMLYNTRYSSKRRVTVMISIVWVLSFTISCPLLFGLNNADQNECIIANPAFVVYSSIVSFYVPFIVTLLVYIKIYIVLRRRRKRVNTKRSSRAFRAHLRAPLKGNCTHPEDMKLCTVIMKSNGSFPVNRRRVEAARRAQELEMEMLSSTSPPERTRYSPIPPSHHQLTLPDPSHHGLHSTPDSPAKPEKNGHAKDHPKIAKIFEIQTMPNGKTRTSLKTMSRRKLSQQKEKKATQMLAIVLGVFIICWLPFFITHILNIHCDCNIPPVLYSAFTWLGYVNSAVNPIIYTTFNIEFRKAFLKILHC
# 5-hydroxytryptamine receptor 2A, sequence (P28223 whole entry): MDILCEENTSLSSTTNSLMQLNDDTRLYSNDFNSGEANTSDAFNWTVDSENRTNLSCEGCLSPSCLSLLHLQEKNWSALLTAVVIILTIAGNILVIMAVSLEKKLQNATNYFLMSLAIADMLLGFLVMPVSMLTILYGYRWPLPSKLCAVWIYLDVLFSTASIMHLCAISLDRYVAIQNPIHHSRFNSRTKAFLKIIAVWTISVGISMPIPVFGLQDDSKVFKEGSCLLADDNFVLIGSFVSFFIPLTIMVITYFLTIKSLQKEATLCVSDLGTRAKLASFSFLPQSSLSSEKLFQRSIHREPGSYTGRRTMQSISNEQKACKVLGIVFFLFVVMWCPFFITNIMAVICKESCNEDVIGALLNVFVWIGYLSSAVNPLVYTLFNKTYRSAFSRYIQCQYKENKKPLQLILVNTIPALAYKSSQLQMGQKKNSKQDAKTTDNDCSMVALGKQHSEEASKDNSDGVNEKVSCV
# T1 sequence (P21728 whole entry): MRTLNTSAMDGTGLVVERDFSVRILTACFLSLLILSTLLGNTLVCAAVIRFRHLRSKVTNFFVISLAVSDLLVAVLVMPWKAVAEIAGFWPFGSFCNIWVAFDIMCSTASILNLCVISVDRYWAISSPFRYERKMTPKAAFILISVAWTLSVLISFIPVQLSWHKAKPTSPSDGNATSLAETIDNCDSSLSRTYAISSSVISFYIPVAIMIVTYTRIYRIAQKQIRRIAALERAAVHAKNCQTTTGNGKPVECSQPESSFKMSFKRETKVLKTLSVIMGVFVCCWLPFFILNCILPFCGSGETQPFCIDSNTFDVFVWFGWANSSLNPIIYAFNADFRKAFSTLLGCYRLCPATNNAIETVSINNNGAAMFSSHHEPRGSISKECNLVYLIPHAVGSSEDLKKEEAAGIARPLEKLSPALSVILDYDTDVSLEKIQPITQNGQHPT
# Voltage-gated inwardly rectifying potassium channel KCNH2, sequence (Q12809 whole entry): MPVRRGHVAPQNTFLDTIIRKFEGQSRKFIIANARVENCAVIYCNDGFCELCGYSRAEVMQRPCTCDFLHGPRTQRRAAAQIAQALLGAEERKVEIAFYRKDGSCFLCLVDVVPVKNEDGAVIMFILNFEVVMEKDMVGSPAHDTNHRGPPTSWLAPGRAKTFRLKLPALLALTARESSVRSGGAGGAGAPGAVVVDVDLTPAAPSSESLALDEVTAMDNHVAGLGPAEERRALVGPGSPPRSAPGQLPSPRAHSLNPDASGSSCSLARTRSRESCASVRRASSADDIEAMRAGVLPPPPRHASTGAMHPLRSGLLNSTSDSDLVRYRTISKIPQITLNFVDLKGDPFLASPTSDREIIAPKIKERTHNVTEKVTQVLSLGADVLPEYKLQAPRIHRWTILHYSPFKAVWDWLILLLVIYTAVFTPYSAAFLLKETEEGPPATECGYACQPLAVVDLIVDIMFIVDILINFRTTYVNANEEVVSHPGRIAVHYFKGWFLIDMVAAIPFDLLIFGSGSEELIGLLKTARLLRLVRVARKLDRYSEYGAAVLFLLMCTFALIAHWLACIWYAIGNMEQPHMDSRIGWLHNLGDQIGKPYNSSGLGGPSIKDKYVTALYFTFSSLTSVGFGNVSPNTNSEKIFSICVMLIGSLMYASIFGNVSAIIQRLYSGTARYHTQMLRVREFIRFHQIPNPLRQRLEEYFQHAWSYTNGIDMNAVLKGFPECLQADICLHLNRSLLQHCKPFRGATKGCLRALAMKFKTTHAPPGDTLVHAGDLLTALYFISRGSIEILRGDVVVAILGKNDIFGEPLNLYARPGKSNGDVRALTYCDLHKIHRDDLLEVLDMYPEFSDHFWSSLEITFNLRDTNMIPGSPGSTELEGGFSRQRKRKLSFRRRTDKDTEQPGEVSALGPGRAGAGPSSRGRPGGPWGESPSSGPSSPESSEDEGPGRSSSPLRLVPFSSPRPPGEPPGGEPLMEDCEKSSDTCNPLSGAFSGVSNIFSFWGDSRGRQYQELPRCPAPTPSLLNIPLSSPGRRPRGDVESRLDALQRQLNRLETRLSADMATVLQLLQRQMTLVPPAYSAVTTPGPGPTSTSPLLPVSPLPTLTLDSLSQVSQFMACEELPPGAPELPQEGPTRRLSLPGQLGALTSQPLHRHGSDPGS
Structure (SMILES),pIC50 [1],Drug metabolism [2],pKi (D(1A) dopamine receptor [3]),pKi (D(2) dopamine receptor),Ratio (D(1A) dopamine receptor [4]),pKi [5],Occ50 [6],Occ50 [7],Occ [8],Occ [9]
C[C@H]1C=C(C2=Nc3cc(Cl)ccc3Nc3ccc(F)cc32)CCN1C,5.92,0.24 µmol/L,9.70,6.90,–,–,–,–,–,–
C[C@H]1C=C(C2=Nc3ccccc3Nc3ccc(Cl)cc32)CCN1C,6.22,0.67 µmol/L,8.80,6.91,–,–,–,–,–,–
Cc1ccc2c(c1)N=C(C1=C[C@H](C)N(C)CC1)c1ccccc1N2,–,–,–,< 5.85,–,–,–,–,–,–
Cc1ccc2c(c1)N=C(C1=C[C@H](C)N(C)CC1)c1cc(Cl)ccc1N2,5.96,0.38 µmol/L,9.32,7.01,–,–,–,–,–,–
C[C@H]1C=C(C2=Nc3cc(Cl)ccc3Nc3ccccc32)CCN1C,–,1.3 µmol/L,7.29,6.32,–,–,–,–,–,–
Cc1ccc2c(c1)N=C(C1=C[C@H](C)N(C)CC1)c1cc(F)ccc1N2,5.80,0.25 µmol/L,8.26,6.34,–,–,–,–,–,–
Cc1ccc2c(c1)C(C1=C[C@H](C)N(C)CC1)=Nc1ccccc1N2,–,0.85 µmol/L,8.10,6.09,–,–,–,–,–,–
Cc1ccc2c(c1)N=C(C1=C[C@H](C)N(C)CC1)c1cc(C)ccc1N2,–,–,–,< 5.85,–,–,–,–,–,–
C[C@H]1C=C(C2=Nc3cc(Cl)ccc3Nc3ccc(Cl)cc32)CCN1C,6.05,0.72 µmol/L,9.05,6.97,–,–,–,–,–,–
CCOc1ccc2c(c1)C(C1=C[C@H](C)N(C)CC1)=Nc1cc(Cl)ccc1N2,6.05,0.77 µmol/L,8.43,7.33,10,10.04,–,–,–,–
C[C@H]1C=C(C2=Nc3cc(Cl)ccc3Nc3ccc(OC(F)(F)F)cc32)CCN1C,5.72,0.58 µmol/L,8.70,6.96,–,9.85,–,–,–,–
CN1CCN([C@@H]2C[C@@H](c3ccccc3)c3ccc(Cl)cc32)CC1(C)C [ZICRONAPINE],–,0 µmol/L,–,–,–,–,23 nM,6.6 nM,–,–
OCCOCCN1CCN(C2=Nc3ccccc3Sc3ccccc32)CC1 [QUETIAPINE],–,–,–,–,–,–,–,–,12%,30%
CN1CC=C(C2=Nc3cc(Cl)ccc3Nc3ccccc32)CC1,–,0.21 µmol/L,6.42,5.86,–,–,–,–,–,–
COc1ccc2c(c1)C(C1=C[C@H](C)N(C)CC1)=Nc1cc(Cl)ccc1N2,5.82,0.89 µmol/L,8.70,7.16,–,–,–,–,–,–
Cc1cc2c(s1)Nc1ccccc1N=C2N1CCN(C)CC1 [OLANZAPINE],–,0.077 µmol/L,–,–,–,–,3.8 nM,480 nM,43%,79%
C[C@@H]1C=C(C2=Nc3cc(Cl)ccc3Nc3ccccc32)CCN1C,–,0.84 µmol/L,6.11,< 5.85,–,–,–,–,–,–
CCc1ccc2c(c1)C(C1=C[C@H](C)N(C)CC1)=Nc1ccccc1N2,6.22,0.86 µmol/L,8.40,6.78,–,–,–,–,–,–
Cc1ccc2c(c1)C(C1=C[C@H](C)N(C)CC1)=Nc1cc(Cl)ccc1N2,–,0.35 µmol/L,8.64,7.20,–,10.03,–,–,–,–
CN1CCN(C2=Nc3cc(Cl)ccc3Nc3ccccc32)CC1 [CLOZAPINE],–,–,–,–,–,–,24.2 nM,73.4 nM,55%,61%
C[C@H]1C=C(C2=Nc3cc(Cl)ccc3Nc3ccc(C#N)cc32)CCN1C,6.22,0.49 µmol/L,8.96,6.87,–,–,–,–,–,–
CN1CCC(C2=Nc3cc(Cl)ccc3Nc3ccccc32)=CC1(C)C,–,0.99 µmol/L,7.26,5.93,–,–,–,–,–,–
Cc1nc2n(c(=O)c1CCN1CCC(c3noc4cc(F)ccc34)CC1)CCCC2 [RISPERIDONE],–,–,–,–,–,–,–,–,25%,81%
CCc1ccc2c(c1)C(C1=C[C@H](C)N(C)CC1)=Nc1cc(Cl)ccc1N2,5.96,0.53 µmol/L,8.85,7.55,10,10.03,1 nM,6 nM,–,–
Cc1ccc2c(c1)N=C(C1=C[C@H](C)N(C)CC1)c1cc(OC(F)(F)F)ccc1N2,–,–,8.62,5.91,–,–,–,–,–,–
COc1ccc2c(c1)C(C1=C[C@H](C)N(C)CC1)=Nc1cc(C)ccc1N2,–,–,–,< 5.85,–,–,–,–,–,–
